Data as given in patent US11957687B2 (REGENERON PHARMACEUTICALS, INC., priority 2019, dated 2024).

What was measured:
Format in all cases: biochemical
[1] = molecular target: HSD17B13 (Homo sapiens (Human), UniProt Q7Z5P4); assay: HSD17B13 enzymatic inhibition assay (150 nM or 50 nM HSD17B13); details: 50 nM HSD17B13; read-out: Inhibition of 50 nM of HSD17B13 IC50
[2] = molecular target: HSD17B2 (Homo sapiens (Human), UniProt P37059); assay: HSD17B2 enzymatic blocking assay; details: 1.8 μM Estradiol, 650 μM NAD; read-out: Inhibition of HSD17B2 IC50
Sequence of HSD17B2 (P37059 other isoform, or with tags, fused parts or gaps): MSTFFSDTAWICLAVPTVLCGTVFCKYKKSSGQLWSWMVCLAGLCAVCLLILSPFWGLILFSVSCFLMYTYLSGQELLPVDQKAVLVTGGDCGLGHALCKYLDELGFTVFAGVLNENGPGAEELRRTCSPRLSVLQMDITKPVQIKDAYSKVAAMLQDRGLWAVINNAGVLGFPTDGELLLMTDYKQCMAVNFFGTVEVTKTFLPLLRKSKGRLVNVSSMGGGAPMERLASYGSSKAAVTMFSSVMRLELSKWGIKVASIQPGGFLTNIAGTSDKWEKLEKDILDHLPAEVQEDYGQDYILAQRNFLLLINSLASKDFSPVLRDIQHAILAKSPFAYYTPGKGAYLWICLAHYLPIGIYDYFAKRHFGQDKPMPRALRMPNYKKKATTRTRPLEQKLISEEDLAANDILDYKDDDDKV
Protocol: To screen compounds of the disclosure for their ability to block HSD17B2 function, an enzymatic blocking assay was performed. For the assay, HSD17B2 activity was measured by detecting NADH formation from oxidation of Estradiol using a NADH Glo luminescence assay (Promega, #Cat. No. G9062). Compounds of the disclosure were evaluated in a dose titration assay where the compounds were titrated at 10-point dose curve using an Echo-555 liquid handling dispenser. HSD17B2 (SEQ ID NO: 3, expressed in mammalian cells) was added at a final concentration of 2 ng/μL in a buffer containing 50 mM Tris-HCl, pH 7.5, Pluronic F-127 0.05%, Tween20 0.01%, BSA 0.01% into a low volume white 384-well assay plate. Compounds were incubated with the enzyme for 15 min at 20° C. The assay reaction was then initiated by addition of 1.8 μM Estradiol substrate (Sigma, catalog #E2758-250MG, CAS: 50-28-2) and 650 μM NAD co-factor, and the reaction mixture was incubated for 45 min at 20° C. DMSO at a concentration of 0.5% was used as a negative control and a ‘no substrate’ control was used a positive control in the assay. Detection reagent was then added as per manufacturer's instructions, and the plate was subsequently incubated in the dark for 1 hour at room temperature, NADH generated was detected in the luminescence mode on the Envision Perkin Elmer plate reader. The IC50 values were determined using Dotmatics analysis software.

[3] = molecular target: HSD17B1 (Homo sapiens (Human), UniProt P14061); assay: HSD17B1 enzymatic blocking assay; details: 25 μM Estradiol, 500 μM NAD; read-out: Inhibition of HSD17B1 IC50
Sequence of HSD17B1 (P14061 other isoform, or with tags, fused parts or gaps): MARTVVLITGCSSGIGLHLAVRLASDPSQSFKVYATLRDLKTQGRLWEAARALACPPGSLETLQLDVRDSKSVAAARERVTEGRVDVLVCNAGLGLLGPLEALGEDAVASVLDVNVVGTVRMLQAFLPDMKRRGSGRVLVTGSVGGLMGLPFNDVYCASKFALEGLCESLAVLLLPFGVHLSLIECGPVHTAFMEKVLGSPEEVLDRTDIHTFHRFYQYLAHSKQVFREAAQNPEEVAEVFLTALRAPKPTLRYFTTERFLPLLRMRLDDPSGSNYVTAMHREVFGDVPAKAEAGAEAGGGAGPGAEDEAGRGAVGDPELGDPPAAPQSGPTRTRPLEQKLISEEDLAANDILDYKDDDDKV
Protocol: To screen compounds of the disclosure for their ability to block HSD17B1 function, an enzymatic blocking assay was performed. For the assay, HSD17B1 activity was measured by detecting NADH formation from oxidation of Estradiol using a NADH Glo luminescence assay (Promega, #Cat. No. G9062). […] Compounds were incubated with the enzyme for 30 minutes at room temperature. […] DMSO at a concentration of 0.5% was used as a negative control and a ‘no substrate’ control was used a positive control in the assay. Detection reagent was then added as per manufacturer's instructions, and the plate was subsequently incubated in the dark for 1 hour at room temperature, NADH generated was detected in the luminescence mode on the Envision Perkin Elmer plate reader. The IC50 values were determined using Dotmatics analysis software.

Sequence of HSD17B13 (Q7Z5P4 other isoform, or with tags, fused parts or gaps): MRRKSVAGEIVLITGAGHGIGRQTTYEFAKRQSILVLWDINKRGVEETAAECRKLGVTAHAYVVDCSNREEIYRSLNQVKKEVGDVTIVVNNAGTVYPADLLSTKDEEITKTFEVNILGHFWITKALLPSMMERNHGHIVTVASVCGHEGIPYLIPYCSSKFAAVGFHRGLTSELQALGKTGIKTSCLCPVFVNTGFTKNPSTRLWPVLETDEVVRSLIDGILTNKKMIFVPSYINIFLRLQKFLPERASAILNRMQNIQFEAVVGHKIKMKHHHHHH

| Compound | IC50 [1] [µM] | IC50 [2] [µM] | IC50 [3] [µM] |
| --- | --- | --- | --- |
| Cc1ccc2c(c1)Oc1cc(C)ccc1C2NC(=O)c1cc(C2=CCCCC2)c(C(F)(F)F)[nH]c1=O [Compound 183, 5-(cyclohex-1-en-1-yl)-N-(3,6-dimethyl-9H-xanthen-9-yl)-2-oxo-6-(trifluoromethyl)-1,2-dihydropyridine-3-carboxamide] | 0.03 | 9.61 | 4.55 |
| CCCc1cc(CCC)cc(NC(=O)c2ccc(C(F)(F)F)[nH]c2=O)c1 [Compound 271, N-(3,5-dipropylphenyl)-2-oxo-6-(trifluoromethyl)-1,2-dihydropyridine-3-carboxamide] | 2.11 | > 100 | 27.9 |
| Cc1ccc2c(c1)Sc1cc(C)ccc1C2NC(=O)c1ccc(C(F)F)[nH]c1=O [Compound 282, 6-(difluoromethyl)-N-(3,6-dimethyl-9H-thioxanthen-9-yl)-2-oxo-1,2-dihydropyridine-3-carboxamide] | 0.14 | > 100 | > 30 |
| CCC1CCC(NC(=O)c2ccc(C(F)(F)F)[nH]c2=O)c2ccc(C)cc21 (stereo not drawn) [Compound 300, N-(4-ethyl-6-methyl-1,2,3,4-tetrahydronaphthalen-1-yl)-2-oxo-6-(trifluoromethyl)-1,2-dihydropyridine-3-carboxamide] | 0.14 | 10.2 | 18 |
| Cc1ccc2c(c1)C(C)CCC2NC(=O)c1ccc(C(F)(F)F)[nH]c1=O (stereo not drawn) [Compound 302, N-(4,6-dimethyl-1,2,3,4-tetrahydronaphthalen-1-yl)-2-oxo-6-(trifluoromethyl)-1,2-dihydropyridine-3-carboxamide] | 0.16 | 23 | > 30 |
| CCCc1sc2cc(C)ccc2c1NC(=O)c1ccc(C(F)(F)F)[nH]c1=O [Compound 308, N-(6-methyl-2-propylbenzo[b]thiophen-3-yl)-2-oxo-6-(trifluoromethyl)-1,2-dihydropyridine-3-carboxamide] | 0.07 | 16.9 | 15.4 |
| CCc1sc2cc(C)ccc2c1NC(=O)c1ccc(C(F)(F)F)[nH]c1=O [Compound 309, N-(2-ethyl-6-methylbenzo[b]thiophen-3-yl)-2-oxo-6-(trifluoromethyl)-1,2-dihydropyridine-3-carboxamide] | 0.08 | 22.6 | 14.3 |
| Cc1cnc2c(c1)Oc1ccccc1C2NC(=O)c1ccc(C(F)(F)F)[nH]c1=O (stereo not drawn) [Compound 324, N-(3-methyl-10H-chromeno[3,2-b]pyridin-10-yl)-2-oxo-6-(trifluoromethyl)-1,2-dihydropyridine-3-carboxamide] | 0.04 | 56.4 | > 30 |
| CCC[C@@H]1Oc2ccc(C)cc2[C@@H]1NC(=O)c1ccc(C(F)(F)F)[nH]c1=O [Compound 354, N-((2S,3S)-5-methyl-2-propyl-2,3-dihydrobenzofuran-3-yl)-2-oxo-6-(trifluoromethyl)-1,2-dihydropyridine-3-carboxamide] | 0.51 | 29.3 | > 30 |
| CCC1Oc2ccc(C)cc2C1NC(=O)c1ccc(C(F)(F)F)[nH]c1=O (stereo not drawn) [Compound 355, N-(2-ethyl-5-methyl-2,3-dihydrobenzofuran-3-yl)-2-oxo-6-(trifluoromethyl)-1,2-dihydropyridine-3-carboxamide] | 0.52 | 37.6 | > 30 |
| Cc1ccc2c(c1)OC(C)CC2NC(=O)c1ccc(C(F)(F)F)[nH]c1=O (stereo not drawn) [Compound 405, N-(2,7-dimethylchroman-4-yl)-2-oxo-6-(trifluoromethyl)-1,2-dihydropyridine-3-carboxamide] | 0.16 | > 100 | > 30 |
| CCCC1CC(NC(=O)c2ccc(C(F)(F)F)[nH]c2=O)c2ccc(C)cc2O1 (stereo not drawn) [Compound 406, N-(7-methyl-2-propylchroman-4-yl)-2-oxo-6-(trifluoromethyl)-1,2-dihydropyridine-3-carboxamide] | 0.23 | 54 | 28.8 |
| CCC1CC(NC(=O)c2ccc(C(F)(F)F)[nH]c2=O)c2ccc(C)cc2O1 (stereo not drawn) [Compound 407, N-(2-ethyl-7-methylchroman-4-yl)-2-oxo-6-(trifluoromethyl)-1,2-dihydropyridine-3-carboxamide] | 0.16 | 69.2 | 12.5 |
| Cc1ccc2c(c1)OC1CCCCC1C2NC(=O)c1ccc(C(F)(F)F)[nH]c1=O (stereo not drawn) [Compound 409, N-(6-methyl-2,3,4,4a,9,9a-hexahydro-1H-xanthen-9-yl)-2-oxo-6-(trifluoromethyl)-1,2-dihydropyridine-3-carboxamide] | 0.04 | 29.7 | > 30 |

The remaining lines, values ahead:

| IC50 [1] [µM] | IC50 [2] [µM] | IC50 [3] [µM] | Compound |
| --- | --- | --- | --- |
| 0.09 | 17.4 | 19.2 | Cc1ccc2c(c1)Oc1cc(C)ccc1C2NC(=O)c1cnc(C(F)(F)F)[nH]c1=O [Compound 194, N-(3,6-dimethyl-9H-xanthen-9-yl)-6-oxo-2-(trifluoromethyl)-1,6-dihydropyrimidine-5-carboxamide] |
| 0.27 | 9.16 | 8.39 | COc1ccc2c(c1)Sc1cc(OC)ccc1C2NC(=O)c1ccc(C(F)F)[nH]c1=O [Compound 274, 6-(difluoromethyl)-N-(3,6-dimethoxy-9H-thioxanthen-9-yl)-2-oxo-1,2-dihydropyridine-3-carboxamide] |
| 0.22 | 8.32 | > 30 | COc1ccc2c(c1)Sc1cccnc1C2NC(=O)c1ccc(C(F)(F)F)[nH]c1=O (stereo not drawn) [Compound 321, N-(7-methoxy-10H-thiochromeno[3,2-b]pyridin-10-yl)-2-oxo-6-(trifluoromethyl)-1,2-dihydropyridine-3-carboxamide] |
| 0.22 | 35.5 | > 30 | COc1ccc2c(c1)Sc1cnccc1C2NC(=O)c1ccc(C(F)(F)F)[nH]c1=O (stereo not drawn) [Compound 323, N-(8-methoxy-5H-thiochromeno[2,3-c]pyridin-5-yl)-2-oxo-6-(trifluoromethyl)-1,2-dihydropyridine-3-carboxamide] |
| 0.11 | > 100 | 4.16 | Cc1ccc2c(c1)Oc1cnccc1C2NC(=O)c1ccc(C(F)(F)F)[nH]c1=O (stereo not drawn) [Compound 328, N-(8-methyl-5H-chromeno[2,3-c]pyridin-5-yl)-2-oxo-6-(trifluoromethyl)-1,2-dihydropyridine-3-carboxamide] |
| 0.08 | 22.1 | > 30 | Cc1ccc2c(c1)Oc1ccncc1C2NC(=O)c1ccc(C(F)(F)F)[nH]c1=O (stereo not drawn) [Compound 330, N-(7-methyl-10H-chromeno[3,2-c]pyridin-10-yl)-2-oxo-6-(trifluoromethyl)-1,2-dihydropyridine-3-carboxamide] |
| 0.25 | 17.5 | 8.59 | O=C(NC1c2ccccc2-c2ccc(C(F)(F)F)cc21)c1ccc(C(F)(F)F)[nH]c1=O (stereo not drawn) [Compound 414, 2-oxo-6-(trifluoromethyl)-N-(2-(trifluoromethyl)-9H-fluoren-9-yl)-1,2-dihydropyridine-3-carboxamide] |
| 0.07 | 14.8 | 20 | COc1ccc2c(c1)C(NC(=O)c1ccc(C(F)(F)F)[nH]c1=O)c1ccccc1-2 (stereo not drawn) [Compound 416, N-(2-methoxy-9H-fluoren-9-yl)-2-oxo-6-(trifluoromethyl)-1,2-dihydropyridine-3-carboxamide] |
